Data published in ChEMBL document CHEMBL1201862, “PubChem BioAssay data set” (2004).
Calls of active or inactive are those of the source.

Legend:
HEK293 [1] = assay: cells; format: functional, cell-based; settings: Homo sapiens
[2] = molecular target: Nucleotide-binding oligomerization domain-containing protein 2 (Homo sapiens, UniProt Q9HC29); assay: inhibition of NOD2-driven NF-kB reporter – cell-based, luminescence, uHTS, HEK293 (AID 1566); format: functional
HEK293 [3] = assay: cells; format: functional, cell-based; settings: Homo sapiens; remark: listed apart in the source
[4] = microbe, parasite or virus in culture; format: functional; settings: Mycobacterium tuberculosis
HEK293 [5] = assay: cells; format: functional, cell-based; settings: Homo sapiens; remark: listed apart in the source
HEK293 [6] = assay: NOD2 signaling inhibitors in MDP-stimulated cells, cell-based, uHTS, luminescence (AID 2001); format: functional; settings: Homo sapiens
Streptococcus = assay: GAS UMAA2166 growth inhibition – luminescence, BacTiterGlo, counter-screen for streptokinase expression inhibitor project, dose response (AID 1915); format: functional, organism-based;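 note: potency for reduction of bacterial viability or growth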
HEK293 [7] = assay: inhibition of NOD1-driven NF-kB reporter – cell-based, luminescence, uHTS, primary screen (AID 1578); format: functional; settings: Homo sapiens
[8] = test system: Streptococcus sp. 'group A'; assay: Streptococcus pyogenes SK(-)GAS viability under kanamycin – luminescence, BacTiterGlo, confirmation, counter-screen for streptokinase expression inhibitor project, dose response (AID 1900); format: functional, organism-based
Protein RecA = molecular target: T1, Protein RecA (Mycobacterium tuberculosis, UniProt P9WHJ3); assay: Fluorescence Cell-Free Homogeneous Dose Retest to Identify Inhibitors of RecA-Intein Splicing Activity. [Related pubchem assays (depositor defined):AID2097, AID2223, AID489010, AID492950]; format: functional
T1 sequence (P9WHJ3 whole entry): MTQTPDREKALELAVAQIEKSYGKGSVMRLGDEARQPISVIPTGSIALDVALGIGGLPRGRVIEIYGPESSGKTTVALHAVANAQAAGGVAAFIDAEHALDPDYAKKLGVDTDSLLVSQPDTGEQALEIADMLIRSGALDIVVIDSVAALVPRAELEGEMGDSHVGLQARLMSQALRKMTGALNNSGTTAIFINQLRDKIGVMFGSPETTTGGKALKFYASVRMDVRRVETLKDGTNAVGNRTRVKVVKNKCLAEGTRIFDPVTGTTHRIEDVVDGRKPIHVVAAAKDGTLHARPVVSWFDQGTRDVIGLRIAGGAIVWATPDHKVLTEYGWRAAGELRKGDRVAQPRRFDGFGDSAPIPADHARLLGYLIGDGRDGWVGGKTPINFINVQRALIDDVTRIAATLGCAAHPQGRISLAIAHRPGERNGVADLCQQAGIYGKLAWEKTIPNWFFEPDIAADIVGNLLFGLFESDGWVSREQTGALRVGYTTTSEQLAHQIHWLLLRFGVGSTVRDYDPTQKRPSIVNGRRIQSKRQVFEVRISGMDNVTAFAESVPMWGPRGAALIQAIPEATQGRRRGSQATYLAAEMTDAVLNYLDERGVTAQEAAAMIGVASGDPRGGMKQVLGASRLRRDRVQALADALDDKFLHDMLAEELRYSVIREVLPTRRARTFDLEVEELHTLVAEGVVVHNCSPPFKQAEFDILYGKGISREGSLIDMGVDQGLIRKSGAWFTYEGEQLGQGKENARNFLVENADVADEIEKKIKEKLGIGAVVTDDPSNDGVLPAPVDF

[9] = molecular target: T2, Replicative DNA helicase DnaB (Mycobacterium tuberculosis, UniProt P9WMR3); assay: DnaB intein splicing inhibitors, dose response, biochemical, cell-free fluorescence (AID 449749); format: functional
T2 sequence (P9WMR3 whole entry): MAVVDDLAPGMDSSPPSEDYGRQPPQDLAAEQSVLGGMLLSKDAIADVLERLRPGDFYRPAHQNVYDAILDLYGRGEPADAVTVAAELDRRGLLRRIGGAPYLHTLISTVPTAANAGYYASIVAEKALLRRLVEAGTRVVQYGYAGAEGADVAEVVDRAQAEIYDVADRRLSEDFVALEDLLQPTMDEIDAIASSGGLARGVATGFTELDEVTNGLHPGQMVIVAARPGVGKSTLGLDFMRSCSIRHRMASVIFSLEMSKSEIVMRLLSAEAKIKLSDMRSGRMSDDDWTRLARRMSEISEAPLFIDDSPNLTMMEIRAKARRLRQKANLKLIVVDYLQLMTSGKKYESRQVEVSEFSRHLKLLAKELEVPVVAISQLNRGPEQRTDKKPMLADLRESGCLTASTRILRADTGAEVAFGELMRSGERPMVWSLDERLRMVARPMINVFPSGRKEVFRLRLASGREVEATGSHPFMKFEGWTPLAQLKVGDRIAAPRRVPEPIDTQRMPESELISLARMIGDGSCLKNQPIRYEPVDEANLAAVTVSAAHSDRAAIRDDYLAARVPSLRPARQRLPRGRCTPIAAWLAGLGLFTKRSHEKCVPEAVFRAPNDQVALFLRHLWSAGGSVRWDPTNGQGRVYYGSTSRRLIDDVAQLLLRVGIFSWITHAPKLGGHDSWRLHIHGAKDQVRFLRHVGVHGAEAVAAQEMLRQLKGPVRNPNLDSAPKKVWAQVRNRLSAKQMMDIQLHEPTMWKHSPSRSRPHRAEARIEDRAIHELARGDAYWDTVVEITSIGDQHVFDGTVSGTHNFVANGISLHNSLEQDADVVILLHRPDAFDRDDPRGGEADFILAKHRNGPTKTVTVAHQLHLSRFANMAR

[10] = molecular target: Runt-related transcription factor 1/Core-binding factor subunit beta (Homo sapiens, UniProt Q01196+Q13951); assay: Confirmation of compounds inhibiting the binding between the RUNX1 Runt domain and CBFb-SMMHC via a fluorescence resonance energy transfer (FRET) assay. [Related pubchem assays (depositor defined):AID1434, AID1438, AID1496, AID1550, AID1645]; format: protein assay
Chain of Runt-related transcription factor 1/Core-binding factor subunit beta (Q01196 whole entry, the tested form may be a part): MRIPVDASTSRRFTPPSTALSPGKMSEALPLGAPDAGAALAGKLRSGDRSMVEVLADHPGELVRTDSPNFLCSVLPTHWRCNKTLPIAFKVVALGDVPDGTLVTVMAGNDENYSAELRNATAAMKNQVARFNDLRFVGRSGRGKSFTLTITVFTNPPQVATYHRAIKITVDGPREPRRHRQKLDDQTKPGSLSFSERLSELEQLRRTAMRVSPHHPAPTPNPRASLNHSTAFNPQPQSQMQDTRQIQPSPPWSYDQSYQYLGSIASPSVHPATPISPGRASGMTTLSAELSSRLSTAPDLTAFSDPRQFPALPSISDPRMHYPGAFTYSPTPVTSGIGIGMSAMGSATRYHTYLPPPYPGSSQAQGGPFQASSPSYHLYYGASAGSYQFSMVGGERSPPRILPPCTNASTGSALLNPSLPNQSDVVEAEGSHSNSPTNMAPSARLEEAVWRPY
Chain of Runt-related transcription factor 1/Core-binding factor subunit beta (Q13951 whole entry, the tested form may be a part): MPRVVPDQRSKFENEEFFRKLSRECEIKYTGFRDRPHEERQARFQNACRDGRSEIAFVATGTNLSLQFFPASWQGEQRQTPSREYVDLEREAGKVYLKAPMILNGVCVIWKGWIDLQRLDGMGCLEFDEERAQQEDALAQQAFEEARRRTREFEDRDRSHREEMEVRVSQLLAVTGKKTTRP

Hexokinase-1 = molecular target: T3, Hexokinase-1 (Homo sapiens, UniProt P19367); assay: HK1 enzyme activation by HKDC1 hits – biochemical, selectivity assay for HKDC1 activator project, dose response (AID 504762); format: functional
T3 sequence (P19367 whole entry): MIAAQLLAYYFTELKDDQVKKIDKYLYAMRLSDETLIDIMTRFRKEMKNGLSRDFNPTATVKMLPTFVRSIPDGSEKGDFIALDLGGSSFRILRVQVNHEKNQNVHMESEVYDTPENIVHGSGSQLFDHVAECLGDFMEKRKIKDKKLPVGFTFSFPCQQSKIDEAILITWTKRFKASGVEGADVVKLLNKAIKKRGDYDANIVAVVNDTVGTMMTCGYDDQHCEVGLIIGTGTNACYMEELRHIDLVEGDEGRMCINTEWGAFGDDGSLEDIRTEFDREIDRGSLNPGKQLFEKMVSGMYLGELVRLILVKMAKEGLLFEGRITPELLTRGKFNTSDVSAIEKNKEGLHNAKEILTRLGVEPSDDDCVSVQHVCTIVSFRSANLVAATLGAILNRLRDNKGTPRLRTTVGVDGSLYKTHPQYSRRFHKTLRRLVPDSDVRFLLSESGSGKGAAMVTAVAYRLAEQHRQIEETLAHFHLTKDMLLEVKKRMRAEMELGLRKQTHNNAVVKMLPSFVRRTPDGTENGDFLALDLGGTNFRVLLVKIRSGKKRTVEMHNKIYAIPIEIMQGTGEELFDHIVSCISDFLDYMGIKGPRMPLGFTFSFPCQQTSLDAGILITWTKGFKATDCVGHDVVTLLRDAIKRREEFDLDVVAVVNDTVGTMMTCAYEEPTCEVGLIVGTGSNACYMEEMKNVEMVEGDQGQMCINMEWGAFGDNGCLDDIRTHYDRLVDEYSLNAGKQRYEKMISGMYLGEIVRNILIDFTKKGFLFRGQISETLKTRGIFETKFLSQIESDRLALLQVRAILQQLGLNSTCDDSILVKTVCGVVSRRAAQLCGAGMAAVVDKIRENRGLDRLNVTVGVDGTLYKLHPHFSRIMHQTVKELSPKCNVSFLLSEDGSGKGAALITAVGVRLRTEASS

Hexokinase HKDC1 = molecular target: T4, Hexokinase HKDC1 (Homo sapiens, UniProt Q2TB90); assay: activation of HKDC1 glucose phosphorylation – biochemical, W721R variant, dose response (AID 504730); format: functional
T4 sequence (Q2TB90 whole entry): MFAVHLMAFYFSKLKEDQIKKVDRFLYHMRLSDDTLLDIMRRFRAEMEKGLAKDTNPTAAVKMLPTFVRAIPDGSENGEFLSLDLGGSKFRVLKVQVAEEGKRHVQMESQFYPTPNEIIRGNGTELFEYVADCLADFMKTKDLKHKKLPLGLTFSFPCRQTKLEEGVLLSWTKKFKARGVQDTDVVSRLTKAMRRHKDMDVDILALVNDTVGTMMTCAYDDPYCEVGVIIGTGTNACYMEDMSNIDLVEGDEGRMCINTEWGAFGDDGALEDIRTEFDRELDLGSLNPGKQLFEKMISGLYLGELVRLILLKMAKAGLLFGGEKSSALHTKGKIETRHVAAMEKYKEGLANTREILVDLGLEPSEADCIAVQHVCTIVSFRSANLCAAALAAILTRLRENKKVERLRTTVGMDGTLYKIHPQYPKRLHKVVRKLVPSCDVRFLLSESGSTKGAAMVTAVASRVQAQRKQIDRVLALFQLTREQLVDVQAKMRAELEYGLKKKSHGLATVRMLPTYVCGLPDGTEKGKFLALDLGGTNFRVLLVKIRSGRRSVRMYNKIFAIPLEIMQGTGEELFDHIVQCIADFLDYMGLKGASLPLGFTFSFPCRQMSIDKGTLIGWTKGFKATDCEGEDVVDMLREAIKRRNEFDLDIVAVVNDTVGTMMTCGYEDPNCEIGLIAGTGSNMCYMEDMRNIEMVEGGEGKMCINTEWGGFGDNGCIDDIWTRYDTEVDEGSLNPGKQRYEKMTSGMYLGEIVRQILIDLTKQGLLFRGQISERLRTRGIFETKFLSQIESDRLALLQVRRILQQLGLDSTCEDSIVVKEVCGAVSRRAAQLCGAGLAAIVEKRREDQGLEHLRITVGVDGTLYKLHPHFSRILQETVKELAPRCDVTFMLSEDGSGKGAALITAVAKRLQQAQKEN

Chain of Nucleotide-binding oligomerization domain-containing protein 2 (Q9HC29 whole entry, the tested form may be a part): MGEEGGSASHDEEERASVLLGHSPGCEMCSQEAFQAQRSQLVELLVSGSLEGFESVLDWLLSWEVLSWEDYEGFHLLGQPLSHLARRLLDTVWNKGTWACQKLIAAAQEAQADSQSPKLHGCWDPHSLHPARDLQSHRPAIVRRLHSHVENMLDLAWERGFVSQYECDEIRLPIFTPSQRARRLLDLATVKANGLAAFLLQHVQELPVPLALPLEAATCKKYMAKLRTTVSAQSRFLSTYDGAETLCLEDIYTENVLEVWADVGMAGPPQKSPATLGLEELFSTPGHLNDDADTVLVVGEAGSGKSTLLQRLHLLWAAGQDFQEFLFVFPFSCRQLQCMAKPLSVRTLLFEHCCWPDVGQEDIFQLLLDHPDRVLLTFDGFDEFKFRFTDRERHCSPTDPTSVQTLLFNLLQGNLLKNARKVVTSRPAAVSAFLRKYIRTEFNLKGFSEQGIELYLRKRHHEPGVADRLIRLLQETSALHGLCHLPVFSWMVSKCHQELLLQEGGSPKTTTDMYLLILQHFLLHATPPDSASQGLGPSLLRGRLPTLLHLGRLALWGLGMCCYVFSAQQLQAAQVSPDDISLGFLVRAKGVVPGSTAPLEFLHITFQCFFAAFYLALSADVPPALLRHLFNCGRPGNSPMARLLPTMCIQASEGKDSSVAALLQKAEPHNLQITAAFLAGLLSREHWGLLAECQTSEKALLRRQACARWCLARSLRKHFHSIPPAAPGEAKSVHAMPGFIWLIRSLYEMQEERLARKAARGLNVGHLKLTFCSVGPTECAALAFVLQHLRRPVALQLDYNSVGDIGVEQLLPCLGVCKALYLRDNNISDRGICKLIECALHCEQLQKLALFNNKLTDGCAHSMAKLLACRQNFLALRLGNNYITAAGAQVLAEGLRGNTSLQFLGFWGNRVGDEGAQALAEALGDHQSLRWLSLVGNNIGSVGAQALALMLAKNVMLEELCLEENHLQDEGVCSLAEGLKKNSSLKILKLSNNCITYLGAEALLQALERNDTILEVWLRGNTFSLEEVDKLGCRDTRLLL

Structure (SMILES) | IC50 (HEK293 [1]) | EC50 [2] | IC50 (HEK293 [3]) | CC50 [4] | IC50 (HEK293 [5]) | IC50 (HEK293 [6]) | EC50 (Streptococcus) | EC50 (HEK293 [7]) | EC50 [8] | EC50 (Protein RecA) | AC50 [9] | IC50 [10] | EC50 (Hexokinase-1) | EC50 (Hexokinase HKDC1)
Nc1nn2c(O)cc(-c3ccccc3)nc2c1N=Nc1ccc2c(c1)OCO2 | > 20 µM (inactive) | > 20 µM (inactive) | > 20 µM (inactive) | 29.9 µM (active) | 19 µM (active) | 14.5 µM (inactive) | 3.77 µM (active) | 18.4 µM (active) | 2.16 µM (active) | – | – | – | – | –
O=C(CCl)Nc1c2c(nn1-c1ccccc1)CSC2 | > 20 µM (inactive) | > 20 µM (inactive) | 8.63 µM (active) | – | > 20 µM (inactive) | 15.1 µM (inactive) | – | 3.07 µM (active) | – | 11.4 µM (active) | 60.5 µM (active) | – | – | –
O=S(=O)(Nc1ccc(-c2nc3cccnc3s2)cc1)c1ccccc1F | – | – | – | – | – | – | – | – | – | – | – | > 50 µM (inactive) | – | –
CC(=O)N1CCN(C2c3cccc4cccc(c34)C2NS(=O)(=O)c2ccccc2)CC1 (stereo not given) | – | – | – | – | – | – | – | – | – | – | – | – | 29.4 µM (inactive) | 48.9 µM (inactive)
